Experimental data published in US11752188B2, “Compositions and methods for nutritional supplements” (DailyColors Health Inc., priority 2020, dated 2023).
Like-named read-outs stand apart in the source and are kept apart here.

Columns and labels:
recombinant human CD73 = target: T1, recombinant human CD73 (Homo sapiens, UniProt P21589); assay: CD73 in vitro enzymatic assay (colorimetric 630 nm); type: biochemical
T1 construct: purchased BPS Bioscience 71184 (enzyme); kit #72055
T1 sequence (P21589 27-549): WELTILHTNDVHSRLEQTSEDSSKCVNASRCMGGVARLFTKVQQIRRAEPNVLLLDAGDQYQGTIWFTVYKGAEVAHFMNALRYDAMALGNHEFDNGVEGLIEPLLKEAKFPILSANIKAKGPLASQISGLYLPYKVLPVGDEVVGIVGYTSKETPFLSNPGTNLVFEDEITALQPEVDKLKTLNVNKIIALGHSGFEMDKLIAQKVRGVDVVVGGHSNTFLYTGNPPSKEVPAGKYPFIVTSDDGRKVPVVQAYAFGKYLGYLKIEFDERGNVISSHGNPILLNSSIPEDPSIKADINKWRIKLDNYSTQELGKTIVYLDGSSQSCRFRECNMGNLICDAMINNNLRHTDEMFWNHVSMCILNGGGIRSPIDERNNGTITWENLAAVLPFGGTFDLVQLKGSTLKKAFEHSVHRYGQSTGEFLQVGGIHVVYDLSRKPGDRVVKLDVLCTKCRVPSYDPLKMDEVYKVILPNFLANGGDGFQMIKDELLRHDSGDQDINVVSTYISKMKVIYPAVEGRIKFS
Excerpt: Here, D5 is the Yellow Blend, D9 is the Purple Blend, D21 is the Green Blend, D13 is the Red Blend, and D31 is CBD. As before, the red blend included Apple Extract, Pomegranate Extract, Tomato Powder, Beet; the green blend included Olive Extract, Rosemary Extract, Green Coffee Bean Extract, Kale; the orange/yellow blend included Onion Extract, Ginger Extract, Grapefruit Extract, Carrot; and the purple/blue blend included Grape, Blueberry Extract, Currant, Elderberry.
Assay Conditions: In general, all assays points were done by following the CD39 and CD73 Inhibitor Screening Assay Kit protocol (BPS Bioscience, #79278 and 72055, respectively). The CD73 enzymatic reactions were conducted in duplicate at room temperature for 30 minutes in a 50 μl mixture containing assay buffer, […], CD73 enzymes, and the test compound. Test compounds were preincubated with the enzyme for 30 minutes. Reactions were started by addition of the substrate. The 50 μl reactions were carried out in a 96-well transparent plate. After enzymatic reactions, 100 μl of Colorimetric Detection Reagent was added to the reaction mix. After a 15 minutes incubation, absorbance was measured using a Tecan plate reader at 630 nm.
Data Analysis: Enzyme activity assays were performed in duplicates at each concentration. The Absorbance intensity data were analyzed and compared. In the absence of the compound, the intensity in each data set was defined as 100% (Ce) activity. In the absence of enzyme, the intensity in each data set was defined as 0% (C0) activity.

recombinant human CD39 = target: T2, recombinant human CD39 (Homo sapiens, UniProt P49961); assay: CD39 in vitro enzymatic assay (ATP, colorimetric 630 nm); type: biochemical; details: TABLE 81;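 also: test compound preincubated 30 min with enzyme, then 30 min reaction with ATP at room temperature, absorbance after detection reagent, 100% activity without compound, 0% without enzyme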
T2 construct: purchased BPS Bioscience 71284 (enzyme); kit #79278
T2 sequence (P49961 1-510): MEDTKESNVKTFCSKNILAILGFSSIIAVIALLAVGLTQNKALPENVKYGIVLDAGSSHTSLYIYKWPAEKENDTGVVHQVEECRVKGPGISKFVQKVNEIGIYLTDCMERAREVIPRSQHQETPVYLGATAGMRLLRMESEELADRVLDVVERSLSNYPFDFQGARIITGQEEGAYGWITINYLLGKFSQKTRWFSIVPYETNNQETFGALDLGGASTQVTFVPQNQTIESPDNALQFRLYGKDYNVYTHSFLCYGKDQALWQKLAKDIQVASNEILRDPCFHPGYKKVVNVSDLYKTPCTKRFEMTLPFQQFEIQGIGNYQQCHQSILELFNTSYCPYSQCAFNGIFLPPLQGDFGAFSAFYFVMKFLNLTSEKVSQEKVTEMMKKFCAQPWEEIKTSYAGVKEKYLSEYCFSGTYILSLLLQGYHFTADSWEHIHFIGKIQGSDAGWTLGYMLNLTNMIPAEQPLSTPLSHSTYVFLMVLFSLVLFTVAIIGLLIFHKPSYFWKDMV
Description: The CD39 enzymatic reactions were conducted in duplicate at room temperature for 30 minutes in a 50 μl mixture containing assay buffer, ATP, CD39 enzymes, and the test compound. Test compounds were preincubated with the enzyme for 30 minutes. Reactions were started by addition of the substrate. The 50 μl reactions were carried out in a 96-well transparent plate. After enzymatic reactions, 100 μl of Colorimetric Detection Reagent was added to the reaction mix. After a 15 minutes incubation, absorbance was measured using a Tecan plate reader at 630 nm.

Q: For `O=c1c(O)c(-c2ccc(O)c(O)c2)oc2cc(O)cc(O)c12` [Quercetin], which “Net absorbance Rep. 1” value (recombinant human CD73; 1 μM, TABLE 89) is on record?
A: 0.40

Q: And the “Net absorbance Rep. 2” value (recombinant human CD73; 1 μM, TABLE 89)?
A: 0.36

Q: What about the inhibition at 1 µM (recombinant human CD73; 1 μM, TABLE 89) of the same molecule?
A: 13%

Q: And the activity at 1 µM (recombinant human CD73; 1 μM, TABLE 89, read-out: Activity (%) Rep. 1)?
A: 92%

Q: What about the activity at 1 µM (recombinant human CD73; 1 μM, TABLE 89, read-out: Activity (%) Rep. 2) of the same molecule?
A: 82%

Q: And the “Net absorbance Rep. 1” value (recombinant human CD73; 10 μM, TABLE 89)?
A: 0.23

Q: What about the “Net absorbance Rep. 2” value (recombinant human CD73; 10 μM, TABLE 89) of the same molecule?
A: 0.25

Q: And the inhibition at 10 µM (recombinant human CD73; 10 μM, TABLE 89)?
A: 44%

Q: What about the activity at 10 µM (recombinant human CD73; 10 μM, TABLE 89, read-out: Activity (%) Rep. 1) of the same molecule?
A: 53%

Q: And the activity at 10 µM (recombinant human CD73; 10 μM, TABLE 89, read-out: Activity (%) Rep. 2)?
A: 58%

Q: And the “Net absorbance Rep. 1” value (recombinant human CD73; 100 μM, TABLE 89)?
A: 0.12

Q: And the “Net absorbance Rep. 2” value (recombinant human CD73; 100 μM, TABLE 89)?
A: 0.08

Q: What about the inhibition at 100 µM (recombinant human CD73; 100 μM, TABLE 89) of the same molecule?
A: 78%

Q: What about the activity at 100 µM (recombinant human CD73; 100 μM, TABLE 89, read-out: Activity (%) Rep. 1) of the same molecule?
A: 27%

Q: And the activity at 100 µM (recombinant human CD73; 100 μM, TABLE 89, read-out: Activity (%) Rep. 2)?
A: 17%

Q: How did the “Activity (%) Rep. 1” value (recombinant human CD39; 0.0004%) turn out when `C=C(C)[C@@H]1CCC(C)=C[C@H]1c1c(O)cc(CCCCC)cc1O` [D31, CBD] was run?
A: 93%

Q: What about the “Activity (%) Rep. 2” value (recombinant human CD39; 0.0004%) of the same molecule?
A: 91%

Q: What about the “Inhibition (%)” value (recombinant human CD39; 0.0004%) of the same molecule?
A: 8%

Q: What about the “Net absorbance Rep. 1” value (recombinant human CD39; 0.0004%) of the same molecule?
A: 0.50

Q: What about the “Net absorbance Rep. 2” value (recombinant human CD39; 0.0004%) of the same molecule?
A: 0.49

Q: And the “Activity (%) Rep. 1” value (recombinant human CD39; 0.002%)?
A: 90%

Q: And the “Activity (%) Rep. 2” value (recombinant human CD39; 0.002%)?
A: 92%

Q: What about the “Inhibition (%)” value (recombinant human CD39; 0.002%) of the same molecule?
A: 9%

Q: And the “Net absorbance Rep. 1” value (recombinant human CD39; 0.002%)?
A: 0.48

Q: What about the “Net absorbance Rep. 2” value (recombinant human CD39; 0.002%) of the same molecule?
A: 0.49

Q: What about the “Activity (%) Rep. 1” value (recombinant human CD39; 0.01%) of the same molecule?
A: 96%

Q: And the “Activity (%) Rep. 2” value (recombinant human CD39; 0.01%)?
A: 103%

Q: What about the “Inhibition (%)” value (recombinant human CD39; 0.01%) of the same molecule?
A: 1%

Q: And the “Net absorbance Rep. 1” value (recombinant human CD39; 0.01%)?
A: 0.52

Q: And the “Net absorbance Rep. 2” value (recombinant human CD39; 0.01%)?
A: 0.55

Q: What about the “Activity (%) Rep. 1” value (recombinant human CD73; 0.0004%, TABLE 91) of the same molecule?
A: 104%

Q: And the “Activity (%) Rep. 2” value (recombinant human CD73; 0.0004%, TABLE 91)?
A: 101%

Q: And the “Inhibition (%)” value (recombinant human CD73; 0.0004%, TABLE 91)?
A: 0%

Q: What about the “Net absorbance Rep. 1” value (recombinant human CD73; 0.0004%, TABLE 91) of the same molecule?
A: 0.35

Q: And the “Net absorbance Rep. 2” value (recombinant human CD73; 0.0004%, TABLE 91)?
A: 0.34

Q: And the “Activity (%) Rep. 1” value (recombinant human CD73; 0.002%, TABLE 91)?
A: 103%

Q: What about the “Activity (%) Rep. 2” value (recombinant human CD73; 0.002%, TABLE 91) of the same molecule?
A: 100%

Q: What about the “Inhibition (%)” value (recombinant human CD73; 0.002%, TABLE 91) of the same molecule?
A: 0%

Q: And the “Net absorbance Rep. 1” value (recombinant human CD73; 0.002%, TABLE 91)?
A: 0.35

Q: And the “Net absorbance Rep. 2” value (recombinant human CD73; 0.002%, TABLE 91)?
A: 0.34

Q: What about the “Activity (%) Rep. 1” value (recombinant human CD73; 0.01%, TABLE 91) of the same molecule?
A: 106%

Q: And the “Activity (%) Rep. 2” value (recombinant human CD73; 0.01%, TABLE 91)?
A: 98%

Q: What about the “Inhibition (%)” value (recombinant human CD73; 0.01%, TABLE 91) of the same molecule?
A: 0%

Q: What about the “Net absorbance Rep. 1” value (recombinant human CD73; 0.01%, TABLE 91) of the same molecule?
A: 0.35

Q: What about the “Net absorbance Rep. 2” value (recombinant human CD73; 0.01%, TABLE 91) of the same molecule?
A: 0.33
